Data reported in article PMC3638593, “1,4-dihydroxy-2-naphthoic Acid Induces Apoptosis in Human Keratinocyte: Potential Application for Psoriasis Treatment” (Evidence-based Complementary and Alternative Medicine : eCAM, 2013).
Several values for one entry are separate records, joined by “and”; a condition that tells them apart may be missing. Equal entries are not always repeated. Where two headings read alike, the source gives them in different places.

Assays:
Assay type in all cases: cell-based, human
[1] = system: apoptosis related proteins in HaCaT cells; assay: Western blot of apoptosis related proteins
Description: After DHNA treatment HaCaT cells were collected and lysed in CelLytic M Mammalian Cell Lysis/Extraction Reagent with freshly added Protease Inhibitor Cocktail for 30 min at 4°C. Cell lysate was centrifuged at 15000 g for 15 min at 4°C and supernatant was collected as whole cell lysate. Protein concentration was determined by Bio-Rad protein assay dye reagent concentrate (Bio-Rad Laboratories, Hercules, CA, USA) following the manufacturer's instructions. Whole cell lysate was denatured by boiling for 5 min in 6X SDS loading buffer (0.375 M Tris [pH 6.8], 30% glycerol, 12% SDS, 0.2% bromophenol blue and 12% β-mercaptoethanol). Equal amount of protein (10–20 μg) was then separated by 12–15% SDS-PAGE and later proteins were transferred to polyvinylidene difluoride membrane (Millipore, Billerica, MA, USA) using Trans-Blot SD semidry transfer cell (Bio-Rad Laboratories). After that, membranes were blocked with 2–5% (w/v) bovine serum albumin or nonfat dry milk in Tris-buffered Saline-Tween (TBS-T; 0.05% v/v Tween-20, 10 mM Tris [pH 7.4], 150 mM NaCl) for 1 h and subsequently incubated overnight at 4°C with different primary antibodies in TBS-T. Membrane was then washed using TBS-T and followed by incubation with corresponding horseradish peroxidase labeled second antibodies (Santa Cruz Biotechnology) in TBS-T for 1 h. After washing of membrane with TBS-T, protein bands were visualized using Immobilon Western Chemiluminescent HRP Substrate (Millipore) and autoradiography with Lumi-Film Chemiluminescent Detection Film (Roche Applied Science). Equal protein loading was monitored by β-actin antibody on the same membrane.

[2] = system: NCTC 2544 cells; assay: Proliferation assay (sulphorhodamine B) on NCTC 2544; conditions: for IC50: Homo sapiens, read-out: IC50 on growth
Source text: The spontaneously immortalized human epidermal keratinocyte HaCaT cells were purchased from China Centre for Type Culture Collection, Wuhan, China. The human foreskin fibroblast Hs-68 cells were purchased from the American Type Culture Collection (Manassas, VA, USA). The human undifferentiated keratinocyte NCTC 2544 cells were provided by Interlab Cell Line Collection (Genoa, Italy) and the immortalized human epidermal melanocyte PIG1 cells were a gift from Dr Caroline Le Poole (Loyola University Chicago, Maywood, IL, USA). HaCaT and Hs-68 cells were maintained in DMEM, NCTC 2544 in RPMI 1640 and PIG1 cells in Medium 254 with Human Melanocyte Growth Supplement-2, respectively. All cells were cultured in complete medium containing 10% FBS, 100 μg/mL of streptomycin, and 100 U/mL of penicillin (Gibco Laboratories) at 37°C in a humidified atmosphere of 5% CO2. Cell culture experiments were carried out at 60–80% confluent.
The ethyl acetate extract (EA) of Rubia cordifolia L. was isolated as described. 1,4-dihydroxy-2-naphthoic acid (98%), dithranol (≥90%), and EA were dissolved in DMSO as stock. All cells were seeded and treated with various concentrations of DHNA, dithranol or EA. After treatment, cells were fixed with cold 50% trichloroacetic acid and incubated 1 h at 4°C. Cell was then washed with deionized water, air-dried, and stained with 0.4% (w/v) sulphorhodamine B for 30 min at room temperature. Unincorporated dye was removed with 1% acetic acid wash and the cell was again air-dried. Incorporated dye was then solubilized in 10 mM Tris base and absorbance was measured at 565/690 nm using a Sunrise microplate spectrophotometer (Tecan, Switzerland). IC50 were determined using GraphPad Prism 5.0 (GraphPad Software, San Diego, CA, USA).

[3] = system: HaCaT cells; assay: Hoechst 33342 fluorescent staining for morphological evaluation; conditions: 72 h
Description: After DHNA treatment, HaCaT cells were fixed in 4% paraformaldehyde for 30 min, washed with phosphate-buffered saline (PBS) and then stained with 2 μg/mL Hoechst 33342 (Molecular Probes, Eugene, OR, USA) for 15 min at room temperature in the dark. Morphology was evaluated using an Axiophot fluorescence microscope (Carl Zeiss, Oberkochen, Germany).

[4] = system: HaCaT cells; assay: Annexin V/propidium iodide staining, flow cytometry; conditions: for viability at 30 µM / viability at 60 µM / viability at 120 µM / viability at 240 µM: Homo sapiens, HaCaT, read-out: viable cells (FITC−/PI−, lower left)
Description: After DHNA treatment, HaCaT cells were resuspended in annexin V binding buffer (10 mM HEPES, 140 mM NaCl, and 2.5 mM CaCl2, pH 7.4) and then incubated with FITC-conjugated annexin V (Biosource International, Inc., USA), and 0.5 μg/mL propidium iodide (PI) for 15 min at room temperature in the dark. Cells were analyzed on a FACSCanto flow cytometer (BD Biosciences, San Jose, CA, USA) immediately and then analyzed using WinMDI 2.9 (developed by Dr. J. Trotter, Scripps Institute, La Jolla, CA, USA). The total number of early (FITC+/PI−) and late (FITC+/PI+) apoptotic cells was assessed. In another experiment, HaCaT cells were preincubated with 40 μM pan-caspase inhibitor Z-VAD-FMK (BD Pharmingen, San Diego, CA, USA) for 1 h before exposure to DHNA.

[5] = system: HaCaT cells; assay: Cell cycle analysis (PI, flow cytometry); conditions: 24 h, Figure 5(a)
Description: HaCaT cells were treated with DHNA for 24 h, fixed with 75% ice-cold ethanol at 4°C for 1 h and stained with PI/RNase solution (BD Pharmingen) for 15 min at room temperature in the dark. Stained cells were analyzed using the FACSCanto flow cytometer immediately. Cell cycle distribution was calculated with ModFit LT 3.1 (Verity Software House, Topsham, ME, USA).

Compound: O=C(O)c1cc(O)c2ccccc2c1O [DHNA, 1,4-dihydroxy-2-naphthoic acid]
- Bid cleavage ([1]; 240 μM (49.01 μg/mL), 12 h): not cleaved
- Fas receptor and active form of caspase-3/7/8 ([1]; 240 μM (49.01 μg/mL), 12 h): upregulated
- PARP cleavage ([1]; 240 μM (49.01 μg/mL), 12 h): induced PARP cleavage
- active form of caspase-9 ([1]; 240 μM (49.01 μg/mL), 12 h): no active form of caspase-9 was found
- procaspase-8 level ([1]; 240 μM (49.01 μg/mL), 12 h): decreased
- expression levels of Bcl-2, Bcl-xL, Bid, and FADD ([1]; 12 h): no significant changes
- activated caspase-9 and cleaved Bid ([1]; 24 h): could then be detected
- IC50 ([2]; NCTC 2544, incubation 48 h): 81.4 µM and 16.6 µg/mL
- IC50 ([2]; NCTC 2544, incubation 72 h): 46.8 µM and 9.56 µg/mL
- less potent than dithranol in inhibiting keratinocytes growth ([2]; NCTC 2544, compared with dithranol): ~ 12 times
- nuclear morphology (Hoechst 33342) ([3]; 120 μM (24.5 μg/mL)): light blue/white fluorescence was emitted from the nuclei of all cells
- nuclear fragmentation (Hoechst 33342) ([3]; 30, 60 and 120 μM): nuclear fragmentation was also observed
- nuclear morphology (Hoechst 33342) ([3]; 30 and 60 μM): chromatin condensation
- total apoptotic fraction (early plus late apoptotic cells) ([4]; 30 μM/6.13 μg/mL, 9 h): 10.4%
- total apoptotic fraction (early plus late apoptotic cells) ([4]; 30 μM/6.13 μg/mL, 24 h): 13.7%
- total apoptotic fraction (early plus late apoptotic cells) ([4]; 240 μM/49.01 μg/mL, 9 h): 45.5%
- total apoptotic fraction (early plus late apoptotic cells) ([4]; 240 μM/49.01 μg/mL, 24 h): 89.7%
- viability at 30 µM ([4]; 9 h): 88.9%
- viability at 30 µM ([4]; 24 h): 85%
- viability at 60 µM ([4]; 9 h): 86.2%
- viability at 60 µM ([4]; 24 h): 77.5%
- viability at 120 µM ([4]; 9 h): 81.8%
- viability at 120 µM ([4]; 24 h): 50.2%
- viability at 240 µM ([4]; 9 h): 44.3%
- viability at 240 µM ([4]; 24 h): 8.8%
- G0/G1 cell population ([5]; 60 μM (12.25 μg/mL)): 39.3%
- G2/M phase cells ([5]; 60 μM (12.25 μg/mL)): 12.4%
- G0/G1 cell population ([5]; 120 μM (24.5 μg/mL)): 51.0%
- G2/M phase cells ([5]; 120 μM (24.5 μg/mL)): 9.4%
- S phase cells ([5]; 120 μM (24.5 μg/mL)): 39.6%
- sub-G0/G1 population ([5]; 120 μM (24.5 μg/mL)): 19.7%
